Source: patent publication US5618675A, “Methods and compositions for detecting lipopolysaccharides using CAP18 fragments” (Panorama Research, Inc., dated 1997)

Experiments:
[1] = test system: E. coli 0111:B4 LPS; experiment: Inhibition of RNIP-mediated hemagglutination by LPS; format: binding; conditions: #36-1 at 16 μg/ml, RNIP (#197) at 25 μg/ml preincubated with LPS 30 minutes
Method: (§1) For hemagglutination assays, erythrocytes were sensitized with LPS as follows. One ml of 1% erythrocyte suspension (human 0 type, C3H/HeN mouse or sheep) was mixed with 0.2 ml of LPS solution and incubated at 37° C. for 30 min, followed by washing with phosphate buffered saline (PBS), and then the concentration of suspension was adjusted to 1.0%. In the case of S-LPS, the solution was heated at 100° C. for 1 hour before sensitization of erythrocytes. […] Activity of CAP was expressed as a minimum agglutinating concentration (MAC) of CAP. According to the method of Kirikae et al. (1986) Microbiol. Immunol. 30:269-274, 50 μl of 2-fold serial dilution of Re-LPS was added to 50 μl of 1.0% rabbit erythrocyte suspension, and incubated at 37° C. for 3, hour. Minimum agglutinating concentration of Re-LPS was expressed as 1 HA unit.
(§2) Another series of experiments was performed to determine if the #36-1 and #197 (RNIP) peptides were capable of binding to LPS from various species of Gram-negative bacteria. For these experiments, sheep red blood cells were sensitized with Salmonella minnesota Re-LPS. Peptides #36-1 and #197 (RNIP) were preincubated with various preparations of LPS. Both peptides bind to a diverse group of lipopolysaccharides.
(§3) °Peptide #361 (16 μg/ml) and RNIP (#197) (25 μg/ml) were
(§4) preincubated with each LPS preparation at 370 for 30 minutes, and each
(§5) reaction mixture was added to sheep erythrocytes sensitized with RELPS.

[2] = test system: E. coli 0127:B8 LPS; experiment: as above; format: binding; conditions: #36-1 at 16 μg/ml, RNIP (#197) at 25 μg/ml preincubated with LPS 30 minutes
Method: as §1, §2, §3, §4, §5

[3] = test system: E. coli 055:B5 LPS; experiment: as above; format: binding; conditions: #36-1 at 16 μg/ml, RNIP (#197) at 25 μg/ml preincubated with LPS 30 minutes
Method: as §1, §2, §3, §4, §5

[4] = test system: E. coli J5 LPS; experiment: as above; format: binding; conditions: #36-1 at 16 μg/ml, RNIP (#197) at 25 μg/ml preincubated with LPS 30 minutes
Method: as §1, §2, §3, §4, §5

[5] = test system: Klebsiella pneumoniae LPS; experiment: as above; format: binding; conditions: #36-1 at 16 μg/ml, RNIP (#197) at 25 μg/ml preincubated with LPS 30 minutes
Method: as §1, §2, §3, §4, §5

[6] = test system: Pseudomonas aeruginosa F-D Type I LPS; experiment: as above; format: binding; conditions: #36-1 at 16 μg/ml, RNIP (#197) at 25 μg/ml preincubated with LPS 30 minutes
Method: as §1, §2, §3, §4, §5

[7] = test system: Salmonella minnesota R595 LPS; experiment: as above; format: binding; conditions: #36-1 at 16 μg/ml, RNIP (#197) at 25 μg/ml preincubated with LPS 30 minutes
Method: as §1, §2, §3, §4, §5

[8] = test system: two strains of Mycobacterium avium; experiment: Antimicrobial activity; format: cell-based; conditions: range 0-20 μg/ml
[9] = target: prothrombin (factor II) (Homo sapiens, UniProt P00734); experiment: Prothrombin activation by factor Xa; format: biochemical; conditions: Xa formed from tissue factor, factor VII and factor X, FIG. 17B
Method: Synthetic chromogenic substrate method: Substrate for factor Xa, S2222 (Kabi, Bz-Ile-Glu-Arg-pNA) was used. Substrate for factor II (prothrombin), Boc-Val-Pro-Arg-pNA (Sigma Chemical Co.) was used.
a) Factor X activation. Factor X (1 unit/ml, 400 μl) was activated by incubating with a reaction mixture of factor VII (1 unit/ml, 400 μl), tissue factor (5 mg/ml, 100 μl) and CaCl2 at 37° C. for 10 min.
b) Prothrombin (factor II) activation.
c) Hydrolysis of thrombin substrate. To 300 μl of the reaction mixture (step b), thrombin 60 μl of substrate and 240 μl of Tris buffer was added and further incubated for 15 min.

[10] = test system: Candida albicans; experiment: Antimicrobial activity; conditions: range 0-20 μg/ml
[11] = test system: Salmonella typhimurium; experiment: Antibacterial CFU assay; conditions: read-out: anti-bacterial IC50 (CFU); FIG. 6D
[12] = test system: Klebsiella pneumoniae; experiment: Antibacterial CFU assay
[13] = test system: methicillin-sensitive Staphylococcus aureus; experiment: Antibacterial CFU assay; conditions: for IC50: read-out: IC50, inhibition of CFU
[14] = test system: thioglycolate elected murine peritoneal exudate cells; experiment: RNI generation by thioglycolate-elicited peritoneal exudate cells; format: cell-based; conditions: for RNI (reactive nitrogen intermediate): RNIP 50 nm
Method: From the sequence of the CAP18 cDNA, it was apparent that the putative N-terminal peptide of CAP18 was in fact an internal fragment of the CAP18 protein. We therefore tried to reconfirm the original protein sequence. Neutrophil-derived heparin bound cationic proteins were prepared as described above and applied to a C18 reverse phase HPLC (FIG. 1). We sequenced the major peaks. Peaks at fractions 14.5 and 15.2 correspond to defensins MCP1 and MCP2 (Territo et al. (1989) J. Clin. Invest. 84:2017-2019), respectively. Fraction 25.8 is macrophage related protein 14 (MRP14) (Odink et al. (1987) Nature 330:80-82). The fraction at 20.3 minutes corresponds to a fragment of CAP18 of approximately 4-5 kD. […] The murine macrophage cell line RAW 264.7 (obtained from ATCC) and thioglycolate-elicited murine peritoneal exudate cells are used to produce RNI. Cells are cultured at 1×10^6 /ml. in RPMI-1640 +2.5% FCS in 24 well plates in the presence or absence of different concentrations of LPS or murine rlFNγ. After 24 hr. incubation at 37° C. the cell free supernatant is collected and tested for the presence of RNI. Accumulation of nitrite in the medium is measured by a colorimetric assay based on the Griess reaction (Green et al. (1982) Anal. Biochem. 126:11) using sodium nitrite as standards. Sample (50 μl) is mixed with 50 μl of Griess reagent (1% sulfanilamide, 0.1% naphthalene diamine dihydrochloride, 2.5% H3 PO4) and after 10 min. at room temperature absorbance is read at 570 nm.

Substance	MIC (minimal inhibitory concentration of LPS) [1]	MIC (minimal inhibitory concentration of LPS) [2]	MIC (minimal inhibitory concentration of LPS) [3]	MIC (minimal inhibitory concentration of LPS) [4]	MIC (minimal inhibitory concentration of LPS) [5]	MIC (minimal inhibitory concentration of LPS) [6]	MIC (minimal inhibitory concentration of LPS) [7]	activity versus two strains of Mycobacterium avium [8]	IC50, factor II activated by Xa [9]	IC50 ([9]; read-out: IC50, factor II activated by Xa)	activity versus Candida albicans [10]	IC50 [11]	anti-bacterial IC50 (CFU) [12]	IC50, inhibition of CFU [13]	IC50 [13]	RNI (reactive nitrogen intermediate) ([14]; IFN 500 U/ml, without RNIP 4.0 ± 0.8)	RNI (reactive nitrogen intermediate) ([14]; LPS + IFNγ 1 ng + 500 U/ml, without RNIP 26 ± 0.6)	IC50 ([14]; read-out: IC50 for inhibition of gamma interferon stimulated nitrogen radical release)	IC50 ([12]; read-out: anti-bacterial IC50 (CFU))
36-1: synthetic rabbit RNIP-derived fragment, amino acids 135-166 of SEQ ID NO:4 (GLRKRLRKFRNKIKEKLKKIGQKIQGLLPKLA)	15.6 µg/mL	15.6 µg/mL	15.6 µg/mL	7.8 µg/mL	31.3 µg/mL	3.9 µg/mL	15.6 µg/mL	inactive	< 1.8 µg/mL	< 300 nM	inactive	220 to 280 nM	< 0.54 µg/mL	0.58 µg/mL	110 nM				
RNIP: reactive nitrogen inhibitory protein, amino acids 135-171 of SEQ ID NO:4 (rabbit CAP18 C-terminus); purified from granulocytes or synthetic (#197) (GLRKRLRKFRNKIKEKLKKIGQKIQGLLPKLAPRTDY)	31.3 µg/mL	62.5 µg/mL	62.5 µg/mL	15.6 µg/mL	62.5 µg/mL	15.6 µg/mL	62.5 µg/mL	inactive	2.8 µg/mL		inactive	220 to 280 nM	< 0.44 µg/mL	0.94 µg/mL	150 nM	1.1 µM	14 ± 0.7 µM	< 50 nM	< 70 nM
